# From US7858620B2, “Cyanoisoquinoline” (H. Lundbeck A/S, priority 2007, dated 2010)
# Target: T1, PDE10A enzyme (Homo sapiens, UniProt Q9Y233)
# T1 construct: made in house; host or cells: E. coli BL21(DE3)
# Assay: PDE10A inhibition assay, SPA
# Assay type: biochemical
# Settings: column head 2,1334003; unit inferred, nM
# Procedure: Active PDE10A enzyme is prepared in a number of ways for use in PDE assays (Loughney, K. et al. Gene 1999, 234, 109-117; Fujishige, K. et al. Eur J Biochem. 1999, 266, 1118-1127 and Soderling, S. et al. Proc. Natl. Acad. Sci. 1999, 96, 7071-7076). PDE10A can be expressed as full-length proteins or as truncated proteins, as long as they express the catalytic domain. PDE10A can be prepared in different cell types, for example insect cells or E. coli. An example of a method to obtain catalytically active PDE10A is as follows: The catalytic domain of human PDE10A (amino acids 440-779 from the sequence with accession number NP 006652) is amplified from total human brain total RNA by standard RT-PCR and is cloned into the BamH1 and Xho1 sites of the pET28a vector (Novagen). Expression in coli is performed according to standard protocols. Briefly, the expression plasmids are transformed into the BL21(DE3) E. coli strain, and 50 mL cultures inoculated with the cells allowed to grow to an OD600 of 0.4-0.6 before protein expression is induced with 0.5 mM IPTG. Following induction, the cells are incubated overnight at room temperature, after which the cells are collected by centrifugation. Cells expressing PDE10A are resuspended in 12 mL (50 mM TRIS-HCl-pH8.0, 1 mM MgCl2 and protease inhibitors). The cells are lysed by sonication, and after all cells are lysed, TritonX100 is added according to Novagen protocols.
# PDE10A and Pde3A assays can for example be performed as follows: PDE10A and Pde3A assays are performed in 60 uL samples containing a fixed amount of the relevant PDE enzyme (sufficient to convert 20-25% of the cyclic nucleotide substrate), a buffer (50 mM HEPES7.6; 10 mM MgCl2; 0.02% Tween20), 0.1 mg/ml BSA, 225 pCi of ^3H-labelled cyclic nucleotide substrate, tritium labeled cAMP to a final concentration of 5 nM and varying amounts of inhibitors. Reactions are initiated by addition of the cyclic nucleotide substrate, and reactions are allowed to proceed for one hr at room temperature before being terminated through mixing with 15 uL 8 mg/mL yttrium silicate SPA beads (Amersham). The beads are allowed to settle for one hr in the dark before the plates are counted in a Wallac 1450 Microbeta counter. The measured signal can be converted to activity relative to an uninhibited control (100%) and IC50 values can be calculated using the Xlfit extension to EXCEL.
# T1 sequence (Q9Y233 716-1055): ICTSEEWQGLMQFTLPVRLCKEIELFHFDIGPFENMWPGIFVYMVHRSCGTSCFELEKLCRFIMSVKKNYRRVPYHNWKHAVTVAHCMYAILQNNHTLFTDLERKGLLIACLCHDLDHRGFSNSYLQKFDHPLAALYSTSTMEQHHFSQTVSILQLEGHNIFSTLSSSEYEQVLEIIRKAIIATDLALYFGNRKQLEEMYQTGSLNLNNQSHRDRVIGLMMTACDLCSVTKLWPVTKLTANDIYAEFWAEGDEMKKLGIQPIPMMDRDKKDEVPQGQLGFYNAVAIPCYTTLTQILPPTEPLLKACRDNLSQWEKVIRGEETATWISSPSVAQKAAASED
row,IC50 [nM],Structure (SMILES)
1,1300,"COc1cccc(C2CN(c3ncc(C#N)c4cc(OC)c(OC)cc34)CCN2)c1 (single isomer, unassigned; (+)) [Compound 23, (+)-6,7-Dimethoxy-1-[3-(3-methoxy-phenyl)-piperazin-1-yl]-isoquinoline-4-carbonitrile]"
2,27,"COc1cccc(C2CN(c3ncc(C#N)c4cc(OC)c(OC)cc34)CCN2)c1 (single isomer, unassigned; (-)) [Compound 24, (−)-6,7-Dimethoxy-1-[3-(3-methoxy-phenyl)-piperazin-1-yl]-isoquinoline-4-carbonitrile]"
3,80,"COc1cc2c(C#N)cnc(N3CCNC(c4ccc(F)cc4)C3)c2cc1OC (centres unmarked) [Compound 1, 1-[3-(4-Fluoro-phenyl)-piperazin-1-yl]-6,7-dimethoxy-isoquinoline-4-carbonitrile]"
4,320,"COc1cccc(C2CN(c3ncc(C#N)c4cc(OC)c(OC)cc34)CCN2)c1 (centres unmarked) [Compound 2, 6,7-Dimethoxy-1-[3-(3-methoxy-phenyl)-piperazin-1-yl]-isoquinoline-4-carbonitrile]"
5,240,"COc1cccc(C2CN(c3nc(C)c(C#N)c4cc(OC)c(OC)cc34)CCN2)c1 (centres unmarked) [Compound 3, 6,7-Dimethoxy-1-[3-(3-methoxy-phenyl)-piperazin-1-yl]-3-methyl-isoquinoline-4-carbonitrile]"
6,78,"COc1cc2c(C#N)cnc(N3CCNC(c4cccc5ccccc45)C3)c2cc1OC (centres unmarked) [Compound 4, 6,7-Dimethoxy-1-(3-naphthalen-1-yl-piperazin-1-yl)-isoquinoline-4-carbonitrile]"
7,54,"COc1ccc(C2CN(c3ncc(C#N)c4cc(OC)c(OC)cc34)CCN2)cc1 (centres unmarked) [Compound 5, 6,7-Dimethoxy-1-[3-(4-methoxy-phenyl)-piperazin-1-yl]-isoquinoline-4-carbonitrile]"
8,420,"COc1cc2c(C#N)cnc(N3CCNC(c4ccccc4OC)C3)c2cc1OC (centres unmarked) [Compound 6, 6,7-Dimethoxy-1-[3-(2-methoxy-phenyl)-piperazin-1-yl]-isoquinoline-4-carbonitrile]"
9,76,"COc1cc2c(C#N)cnc(N3CCNC(c4ccc(N(C)C)cc4)C3)c2cc1OC (centres unmarked) [Compound 7, 1-[3-(4-Dimethylamino-phenyl)-piperazin-1-yl]-6,7-dimethoxy-isoquinoline-4-carbonitrile]"
10,81,"COc1cc2c(C#N)cnc(N3CCNC(c4ccc5c(c4)OCO5)C3)c2cc1OC (centres unmarked) [Compound 8, 1-(3-Benzo[1,3]dioxol-5-yl-piperazin-1-yl)-6,7-dimethoxy-isoquinoline-4-carbonitrile]"
11,120,"COc1cc2c(C#N)cnc(N3CCNC(c4cccc([N+](=O)[O-])c4)C3)c2cc1OC (centres unmarked) [Compound 9, 6,7-Dimethoxy-1-[3-(3-nitro-phenyl)-piperazin-1-yl]-isoquinoline-4-carbonitrile]"
12,73,"COc1cc2c(C#N)cnc(N3CCNC(c4ccc5ccccc5c4)C3)c2cc1OC (centres unmarked) [Compound 10, 6,7-Dimethoxy-1-(3-naphthalen-2-yl-piperazin-1-yl)-isoquinoline-4-carbonitrile]"
13,41,"COc1cc(OC)cc(C2CN(c3ncc(C#N)c4cc(OC)c(OC)cc34)CCN2)c1 (centres unmarked) [Compound 11, 1-[3-(3,5-Dimethoxy-phenyl)-piperazin-1-yl]-6,7-dimethoxy-isoquinoline-4-carbonitrile]"
14,42,"COc1ccc(OC)c(C2CN(c3ncc(C#N)c4cc(OC)c(OC)cc34)CCN2)c1 (centres unmarked) [Compound 12, 1-[3-(2,5-Dimethoxy-phenyl)-piperazin-1-yl]-6,7-dimethoxy-isoquinoline-4-carbonitrile]"
15,160,"COc1cc2c(C#N)cnc(N3CCNC(c4ccc(C(F)(F)F)cc4)C3)c2cc1OC (centres unmarked) [Compound 13, 6,7-Dimethoxy-1-[3-(4-trifluoromethyl-phenyl)-piperazin-1-yl]-isoquinoline-4-carbonitrile]"
16,650,"COc1cc2c(C#N)cnc(N3CCNC(c4cc(Cl)ccc4Cl)C3)c2cc1OC (centres unmarked) [Compound 14, 1-[3-(2,5-Dichloro-phenyl)-piperazin-1-yl]-6,7-dimethoxy-isoquinoline-4-carbonitrile]"
17,520,"COc1cc2c(C#N)cnc(N3CCNC(c4ccc(Cl)cc4Cl)C3)c2cc1OC (centres unmarked) [Compound 15, 1-[3-(2,4-Dichloro-phenyl)-piperazin-1-yl]-6,7-dimethoxy-isoquinoline-4-carbonitrile]"
18,76,"COc1cc2c(C#N)cnc(N3CCNC(c4ccc(N5CCOCC5)cc4)C3)c2cc1OC (centres unmarked) [Compound 16, 6,7-Dimethoxy-1-[3-(4-morpholin-4-yl-phenyl)-piperazin-1-yl]-isoquinoline-4-carbonitrile]"
19,1000,"COc1cc2c(C#N)cnc(N3CCNC(c4cc(F)c(Cl)cc4Cl)C3)c2cc1OC (centres unmarked) [Compound 17, 1-[3-(2,4-Dichloro-5-fluoro-phenyl)-piperazin-1-yl]-6,7-dimethoxy-isoquinoline-4-carbonitrile]"
20,300,"COc1cc2c(C#N)cnc(N3CCNC(c4ccc(C)cc4)C3)c2cc1OC (centres unmarked) [Compound 25, 6,7-Dimethoxy-1-(3-p-tolyl-piperazin-1-yl)-isoquinoline-4-carbonitrile]"
21,390,"COc1cc2c(C#N)cnc(N3CCNC(c4cccc(Cl)c4)C3)c2cc1OC (centres unmarked) [Compound 26, 1-[3-(3-Chloro-phenyl)-piperazin-1-yl]-6,7-dimethoxy-isoquinoline-4-carbonitrile]"
22,510,"COc1cc2c(C#N)cnc(N3CCNC(c4ccc(Br)cc4)C3)c2cc1OC (centres unmarked) [Compound 27, 1-[3-(4-Bromo-phenyl)-piperazin-1-yl]-6,7-dimethoxy-isoquinoline-4-carbonitrile]"
23,330,"COc1ccc2cc(C3CN(c4ncc(C#N)c5cc(OC)c(OC)cc45)CCN3)ccc2c1 (centres unmarked) [Compound 28, 6,7-Dimethoxy-1-[3-(6-methoxy-naphthalen-2-yl)-piperazin-1-yl]-isoquinoline-4-carbonitrile]"

row,Structure (SMILES),IC50 [nM]
1,"COc1ccc(C2CN(c3ncc(C#N)c4cc(OC)c(OC)cc34)CCO2)cc1 (centres unmarked) [Compound 18, 6,7-Dimethoxy-1-[2-(4-methoxy-phenyl)-morpholin-4-yl]-isoquinoline-4-carbonitrile]",97
2,"COc1cc2c(C#N)cnc(N3CCOC(c4ccc(C)cc4)C3)c2cc1OC (centres unmarked) [Compound 19, 6,7-Dimethoxy-1-(2-p-tolyl-morpholin-4-yl)-isoquinoline-4-carbonitrile]",580
3,"COc1cc2c(C#N)cnc(N3CCOC(c4ccc(Cl)cc4)C3)c2cc1OC (centres unmarked) [Compound 20, 1-[2-(4-Chloro-phenyl)-morpholin-4-yl]-6,7-dimethoxy-isoquinoline-4-carbonitrile]",800
4,"COc1cc2c(C#N)cnc(N3CCOC(c4ccccc4Cl)C3)c2cc1OC (centres unmarked) [Compound 21, 1-[2-(2-Chloro-phenyl)-morpholin-4-yl]-6,7-dimethoxy-isoquinoline-4-carbonitrile]",530
5,"COc1cc2c(C#N)cnc(N3CCOC(c4ccc(C(F)(F)F)cc4)C3)c2cc1OC (centres unmarked) [Compound 22, 6,7-Dimethoxy-1-[2-(4-trifluoromethyl-phenyl)-morpholin-4-yl]-isoquinoline-4-carbonitrile]",1600
6,"COc1cc2c(C#N)cnc(N3CCSC(c4ccccc4)C3)c2cc1OC (centres unmarked) [Compound 29, 6,7-Dimethoxy-1-(2-phenyl-thiomorpholin-4-yl)-isoquinoline-4-carbonitrile]",2500
